≈ marks a conversion by molar mass, not a printed value.
Columns and labels:
Format in all cases: functional
Bacillus subtilis [1] = assay: Antibacterial activity against Bacillus subtilis at 100 ug/ml after 24 hrs by agar well diffusion method; settings: read-out: DIZ
Aspergillus niger [2] = assay: Antifungal activity against Aspergillus niger at 100 ug/ml after 72 hrs by agar well diffusion method; settings: read-out: DIZ
Aspergillus flavus [3] = assay: Antifungal activity against Aspergillus flavus at 300 ug/ml after 72 hrs by agar well diffusion method; settings: read-out: DIZ
Fusarium oxysporum [4] = assay: Antifungal activity against Fusarium oxysporum at 300 ug/ml after 72 hrs by agar well diffusion method; settings: read-out: DIZ
Aspergillus flavus [5] = assay: Antifungal activity against Aspergillus flavus at 50 ug/ml after 72 hrs by agar well diffusion method; settings: read-out: DIZ
Escherichia coli [6] = assay: Antibacterial activity against Escherichia coli ATCC 8739 at 100 ug/ml after 24 hrs by agar well diffusion method; settings: ATCC 8739, 24 h, read-out: DIZ
Staphylococcus aureus [7] = assay: Antibacterial activity against Staphylococcus aureus ATCC 6538 at 500 ug/ml after 24 hrs by agar well diffusion method; settings: ATCC 6538, 24 h, read-out: DIZ
Staphylococcus aureus [8] = assay: Antibacterial activity against Staphylococcus aureus ATCC 6538 at 200 ug/ml after 24 hrs by agar well diffusion method; settings: ATCC 6538, 24 h, read-out: DIZ
Aspergillus flavus [9] = assay: Antifungal activity against Aspergillus flavus at 500 ug/ml after 72 hrs by agar well diffusion method; settings: read-out: DIZ
Klebsiella pneumoniae [10] = assay: Antibacterial activity against Klebsiella pneumoniae at 500 ug/ml after 24 hrs by agar well diffusion method; settings: read-out: DIZ
Aspergillus flavus [11] = assay: Antifungal activity against Aspergillus flavus after 72 hrs by agar well diffusion method
Rhizoctonia solani [12] = assay: Antifungal activity against Rhizoctonia solani at 200 ug/ml after 72 hrs by agar well diffusion method; settings: read-out: DIZ
Escherichia coli [13] = assay: Antibacterial activity against Escherichia coli ATCC 8739 after 24 hrs by agar well diffusion method; settings: ATCC 8739, 24 h
Aspergillus niger [14] = assay: Antifungal activity against Aspergillus niger at 500 ug/ml after 72 hrs by agar well diffusion method; settings: read-out: DIZ
Aspergillus flavus [15] = assay: Antifungal activity against Aspergillus flavus at 100 ug/ml after 72 hrs by agar well diffusion method; settings: read-out: DIZ
Bacillus subtilis [16] = assay: Antibacterial activity against Bacillus subtilis at 300 ug/ml after 24 hrs by agar well diffusion method; settings: read-out: DIZ
Aspergillus niger [17] = assay: Antifungal activity against Aspergillus niger after 72 hrs by agar well diffusion method
Fusarium oxysporum [18] = assay: Antifungal activity against Fusarium oxysporum after 72 hrs by agar well diffusion method
Rhizoctonia solani [19] = assay: Antifungal activity against Rhizoctonia solani at 100 ug/ml after 72 hrs by agar well diffusion method; settings: read-out: DIZ
Bacillus subtilis [20] = assay: Antibacterial activity against Bacillus subtilis at 500 ug/ml after 24 hrs by agar well diffusion method; settings: read-out: DIZ
Staphylococcus aureus [21] = assay: Antibacterial activity against Staphylococcus aureus ATCC 6538 at 100 ug/ml after 24 hrs by agar well diffusion method; settings: ATCC 6538, 24 h, read-out: DIZ
Fusarium oxysporum [22] = assay: Antifungal activity against Fusarium oxysporum at 500 ug/ml after 72 hrs by agar well diffusion method; settings: read-out: DIZ
Aspergillus flavus [23] = assay: Antifungal activity against Aspergillus flavus at 200 ug/ml after 72 hrs by agar well diffusion method; settings: read-out: DIZ
Bacillus subtilis [24] = assay: Antibacterial activity against Bacillus subtilis at 200 ug/ml after 24 hrs by agar well diffusion method; settings: read-out: DIZ
Fusarium oxysporum [25] = assay: Antifungal activity against Fusarium oxysporum at 50 ug/ml after 72 hrs by agar well diffusion method; settings: read-out: DIZ
Klebsiella pneumoniae [26] = assay: Antibacterial activity against Klebsiella pneumoniae at 200 ug/ml after 24 hrs by agar well diffusion method; settings: read-out: DIZ
Escherichia coli [27] = assay: Antibacterial activity against Escherichia coli ATCC 8739 at 300 ug/ml after 24 hrs by agar well diffusion method; settings: ATCC 8739, 24 h, read-out: DIZ
Klebsiella pneumoniae [28] = assay: Antibacterial activity against Klebsiella pneumoniae at 300 ug/ml after 24 hrs by agar well diffusion method; settings: read-out: DIZ
Klebsiella pneumoniae [29] = assay: Antibacterial activity against Klebsiella pneumoniae at 50 ug/ml after 24 hrs by agar well diffusion method; settings: read-out: DIZ
Rhizoctonia solani [30] = assay: Antifungal activity against Rhizoctonia solani at 300 ug/ml after 72 hrs by agar well diffusion method; settings: read-out: DIZ
Staphylococcus aureus [31] = assay: Antibacterial activity against Staphylococcus aureus ATCC 6538 after 24 hrs by agar well diffusion method; settings: ATCC 6538, 24 h
Rhizoctonia solani [32] = assay: Antifungal activity against Rhizoctonia solani after 72 hrs by agar well diffusion method
Rhizoctonia solani [33] = assay: Antifungal activity against Rhizoctonia solani at 50 ug/ml after 72 hrs by agar well diffusion method; settings: read-out: DIZ
Escherichia coli [34] = assay: Antibacterial activity against Escherichia coli ATCC 8739 at 50 ug/ml after 24 hrs by agar well diffusion method; settings: ATCC 8739, 24 h, read-out: DIZ
Aspergillus niger [35] = assay: Antifungal activity against Aspergillus niger at 200 ug/ml after 72 hrs by agar well diffusion method; settings: read-out: DIZ
Bacillus subtilis [36] = assay: Antibacterial activity against Bacillus subtilis at 50 ug/ml after 24 hrs by agar well diffusion method; settings: read-out: DIZ
Klebsiella pneumoniae [37] = assay: Antibacterial activity against Klebsiella pneumoniae after 24 hrs by agar well diffusion method
Aspergillus niger [38] = assay: Antifungal activity against Aspergillus niger at 50 ug/ml after 72 hrs by agar well diffusion method; settings: read-out: DIZ
Escherichia coli [39] = assay: Antibacterial activity against Escherichia coli ATCC 8739 at 200 ug/ml after 24 hrs by agar well diffusion method; settings: ATCC 8739, 24 h, read-out: DIZ
Fusarium oxysporum [40] = assay: Antifungal activity against Fusarium oxysporum at 200 ug/ml after 72 hrs by agar well diffusion method; settings: read-out: DIZ
Escherichia coli [41] = assay: Antibacterial activity against Escherichia coli ATCC 8739 at 500 ug/ml after 24 hrs by agar well diffusion method; settings: ATCC 8739, 24 h, read-out: DIZ
Staphylococcus aureus [42] = assay: Antibacterial activity against Staphylococcus aureus ATCC 6538 at 300 ug/ml after 24 hrs by agar well diffusion method; settings: ATCC 6538, 24 h, read-out: DIZ
Rhizoctonia solani [43] = assay: Antifungal activity against Rhizoctonia solani at 500 ug/ml after 72 hrs by agar well diffusion method; settings: read-out: DIZ
Fusarium oxysporum [44] = assay: Antifungal activity against Fusarium oxysporum at 100 ug/ml after 72 hrs by agar well diffusion method; settings: read-out: DIZ
Aspergillus niger [45] = assay: Antifungal activity against Aspergillus niger at 300 ug/ml after 72 hrs by agar well diffusion method; settings: read-out: DIZ
Bacillus subtilis [46] = assay: Antibacterial activity against Bacillus subtilis after 24 hrs by agar well diffusion method
Staphylococcus aureus [47] = assay: Antibacterial activity against Staphylococcus aureus ATCC 6538 at 50 ug/ml after 24 hrs by agar well diffusion method; settings: ATCC 6538, 24 h, read-out: DIZ
Klebsiella pneumoniae [48] = assay: Antibacterial activity against Klebsiella pneumoniae at 100 ug/ml after 24 hrs by agar well diffusion method; settings: read-out: DIZ

CCn1cc(C=C2C(=O)OC(C)(C)OC2=O)c2cc(OC)ccc21
zone of inhibition at 100 µg/mL (Bacillus subtilis [1]): 8 mm | zone of inhibition at 100 µg/mL (Aspergillus niger [2]): 10 mm | zone of inhibition at 300 µg/mL (Aspergillus flavus [3]): 15 mm | zone of inhibition at 300 µg/mL (Fusarium oxysporum [4]): 21 mm | zone of inhibition at 50 µg/mL (Aspergillus flavus [5]): 4 mm | zone of inhibition at 100 µg/mL (Escherichia coli [6]): 10 mm | zone of inhibition at 500 µg/mL (Staphylococcus aureus [7]): 22 mm | zone of inhibition at 200 µg/mL (Staphylococcus aureus [8]): 11 mm | zone of inhibition at 500 µg/mL (Aspergillus flavus [9]): 23 mm | zone of inhibition at 500 µg/mL (Klebsiella pneumoniae [10]): 31 mm | MIC (Aspergillus flavus [11]): 40 µg/mL (≈ 121 µM) | zone of inhibition at 200 µg/mL (Rhizoctonia solani [12]): 16 mm | MIC (Escherichia coli [13]): 15 µg/mL (≈ 45.5 µM) | zone of inhibition at 500 µg/mL (Aspergillus niger [14]): 25 mm | zone of inhibition at 100 µg/mL (Aspergillus flavus [15]): 9 mm | zone of inhibition at 300 µg/mL (Bacillus subtilis [16]): 13 mm | MIC (Aspergillus niger [17]): 40 µg/mL (≈ 121 µM) | MIC (Fusarium oxysporum [18]): 35 µg/mL (≈ 106 µM) | zone of inhibition at 100 µg/mL (Rhizoctonia solani [19]): 12 mm | zone of inhibition at 500 µg/mL (Bacillus subtilis [20]): 21 mm | zone of inhibition at 100 µg/mL (Staphylococcus aureus [21]): 9 mm | zone of inhibition at 500 µg/mL (Fusarium oxysporum [22]): 29 mm | zone of inhibition at 200 µg/mL (Aspergillus flavus [23]): 12 mm | zone of inhibition at 200 µg/mL (Bacillus subtilis [24]): 10 mm | zone of inhibition at 50 µg/mL (Fusarium oxysporum [25]): 7 mm | zone of inhibition at 200 µg/mL (Klebsiella pneumoniae [26]): 15 mm | zone of inhibition at 300 µg/mL (Escherichia coli [27]): 16 mm | zone of inhibition at 300 µg/mL (Klebsiella pneumoniae [28]): 20 mm | zone of inhibition at 50 µg/mL (Klebsiella pneumoniae [29]): 8 mm | zone of inhibition at 300 µg/mL (Rhizoctonia solani [30]): 21 mm | MIC (Staphylococcus aureus [31]): 25 µg/mL (≈ 75.9 µM) | MIC (Rhizoctonia solani [32]): 35 µg/mL (≈ 106 µM) | zone of inhibition at 50 µg/mL (Rhizoctonia solani [33]): 7 mm | zone of inhibition at 50 µg/mL (Escherichia coli [34]): 6 mm | zone of inhibition at 200 µg/mL (Aspergillus niger [35]): 14 mm | zone of inhibition at 50 µg/mL (Bacillus subtilis [36]): 4 mm | MIC (Klebsiella pneumoniae [37]): 15 µg/mL (≈ 45.5 µM) | zone of inhibition at 50 µg/mL (Aspergillus niger [38]): 6 mm | zone of inhibition at 200 µg/mL (Escherichia coli [39]): 13 mm | zone of inhibition at 200 µg/mL (Fusarium oxysporum [40]): 16 mm | zone of inhibition at 500 µg/mL (Escherichia coli [41]): 26 mm | zone of inhibition at 300 µg/mL (Staphylococcus aureus [42]): 14 mm | zone of inhibition at 500 µg/mL (Rhizoctonia solani [43]): 29 mm | zone of inhibition at 100 µg/mL (Fusarium oxysporum [44]): 12 mm | zone of inhibition at 300 µg/mL (Aspergillus niger [45]): 18 mm | MIC (Bacillus subtilis [46]): 30 µg/mL (≈ 91.1 µM) | zone of inhibition at 50 µg/mL (Staphylococcus aureus [47]): 4 mm | zone of inhibition at 100 µg/mL (Klebsiella pneumoniae [48]): 13 mm
